Experimental data published in patent US7659245B2, “Macrocylic inhibitors of hepatitis C virus” (Tibotec Pharmaceuticals Ltd, priority 2005, dated 2010).
Like-named read-outs stand apart in the source and are kept apart here.

Assays:
[1] = rcm bond, 14-membered ring, Hoveyda-Grubbs II, DCE
[2] = rcm bond, DCE
[3] = target: full-length hepatitis C NS3 protease enzyme (HCV NS3/4A protease complexes) (Hepatitis C virus genotype 1a, UniProt P27958); assay: Inhibition assay (enzymatic assay) of HCV NS3/4A protease; format: biochemical; conditions: enzyme 1 nM, 25 μM NS4A cofactor, 0.5 μM depsipeptide substrate, 30° C., competitive model
Method: The aim of this in vitro assay is to measure the inhibition of HCV NS3/4A protease complexes by the compounds of the present invention. This assay provides an indication of how effective compounds of the present invention would be in inhibiting HCV NS3/4A proteolytic activity.
The inhibition of full-length hepatitis C NS3 protease enzyme was measured essentially as described in Poliakov, 2002 Prot Expression & Purification 25 363 371. Briefly, the hydrolysis of a depsipeptide substrate, Ac-DED(Edans)EEAbuψ[COO]ASK(Dabcyl)-NH2 (AnaSpec, San José, USA), was measured spectrofluorometrically in the presence of a peptide cofactor, KKGSVVIVGRIVLSGK (Åke Engström, Department of Medical Biochemistry and Microbiology, Uppsala University, Sweden). [Landro, 1997 #Biochem 36 9340-9348]. The enzyme (1 nM) was incubated in 50 mM HEPES, pH 7.5, 10 mM DTT, 40% glycerol, 0.1% n-octyl-D-glucoside, with 25 μM NS4A cofactor and inhibitor at 30° C. for 10 min, whereupon the reaction was initiated by addition of 0.5 μM substrate. Inhibitors were dissolved in DMSO, sonicated for 30 sec. and vortexed. The solutions were stored at −20° C. between measurements.
The final concentration of DMSO in the assay sample was adjusted to 3.3%. The rate of hydrolysis was corrected for inner filter effects according to published procedures. [Liu, 1999 Analytical Biochemistry 267 331-335]. Ki values were estimated by non-linear regression analysis (GraFit, Erithacus Software, Staines, MX, UK), using a model for competitive inhibition and a fixed value for Km (0.15 μM). A minimum of two replicates was performed for all measurements.

[4] = system: HCV replicons (Huh-7 luc/neo cells, NS3-NS5B regions of HCV type 1b); assay: Replicon assay: inhibition of HCV RNA replication in Huh-Luc cells (luciferase read-out); format: cell-based; conditions: Hepatitis C virus, Huh-7, 72 h, HCV type 1b replicon, luciferase activity after three days
Method: The in vitro antiviral activity against HCV of the compounds of formula (I) was tested in a cellular HCV replicon system based on Lohmann et al. (1999) Science 285:110-113, with the further modifications described by Krieger et al. (2001) Journal of Virology 75: 4614-4624 (incorporated herein by reference), which is further exemplified in the examples section. This model, while not a complete infection model for HCV, is widely accepted as the most robust and efficient model of autonomous HCV RNA replication currently available. […] It will be appreciated that it is important to distinguish between compounds that specifically interfere with HCV functions from those that exert cytotoxic or cytostatic effects in the HCV replicon model, and as a consequence cause a decrease in HCV RNA or linked reporter enzyme concentration. Assays are known in the field for the evaluation of cellular cytotoxicity based for example on the activity of mitochondrial enzymes using fluorogenic redox dyes such as resazurin. Furthermore, cellular counter screens exist for the evaluation of non-selective inhibition of linked reporter gene activity, such as firefly luciferase. Appropriate cell types can be equipped by stable transfection with a luciferase reporter gene whose expression is dependent on a constitutively active gene promoter, and such cells can be used as a counter-screen to eliminate non-selective inhibitors.
The compounds of formula (I) were examined for activity in the inhibition of HCV RNA replication in a cellular assay. […] The cellular assay was based on a bicistronic expression construct, as described by Lohmann et al. (1999) Science vol. 285 pp. 110-113 with modifications described by Krieger et al. (2001) Journal of Virology 75: 4614-4624, in a multi-target screening strategy. In essence, the method was as follows.
The assay utilized the stably transfected cell line Huh-7 luc/neo (hereafter referred to as Huh-Luc). This cell line harbors an RNA encoding a bicistronic expression construct comprising the wild type NS3-NS5B regions of HCV type 1b translated from an Internal Ribosome Entry Site (IRES) from encephalomyocarditis virus (EMCV), preceded by a reporter portion (FfL-luciferase), and a selectable marker portion (neo^R, neomycine phosphotransferase). The construct is bordered by 5′ and 3′ NTRs (non-translated regions) from HCV type 1b. Continued culture of the replicon cells in the presence of G418 (neo^R) is dependent on the replication of the HCV RNA. The stably transfected replicon cells that express HCV RNA, which replicates autonomously and to high levels, encoding inter alia luciferase, are used for screening the antiviral compounds.
The replicon cells were plated in 384 well plates in the presence of the test and control compounds which were added in various concentrations. Following an incubation of three days, HCV replication was measured by assaying luciferase activity (using standard luciferase assay substrates and reagents and a Perkin Elmer ViewLux™ ultraHTS microplate imager). Replicon cells in the control cultures have high luciferase expression in the absence of any inhibitor. The inhibitory activity of the compound on luciferase activity was monitored on the Huh-Luc cells, enabling a dose-response curve for each test compound. EC50 values were then calculated, which value represents the amount of the compound required to decrease by 50% the level of detected luciferase activity, or more specifically, the ability of the genetically linked HCV replicon RNA to replicate.

[5] = 14-membered ring, Hoveyda-Grubbs I, with chain assembly

Chain of full-length hepatitis C NS3 protease enzyme (HCV NS3/4A protease complexes) (P27958 1027-1657, one chain of several): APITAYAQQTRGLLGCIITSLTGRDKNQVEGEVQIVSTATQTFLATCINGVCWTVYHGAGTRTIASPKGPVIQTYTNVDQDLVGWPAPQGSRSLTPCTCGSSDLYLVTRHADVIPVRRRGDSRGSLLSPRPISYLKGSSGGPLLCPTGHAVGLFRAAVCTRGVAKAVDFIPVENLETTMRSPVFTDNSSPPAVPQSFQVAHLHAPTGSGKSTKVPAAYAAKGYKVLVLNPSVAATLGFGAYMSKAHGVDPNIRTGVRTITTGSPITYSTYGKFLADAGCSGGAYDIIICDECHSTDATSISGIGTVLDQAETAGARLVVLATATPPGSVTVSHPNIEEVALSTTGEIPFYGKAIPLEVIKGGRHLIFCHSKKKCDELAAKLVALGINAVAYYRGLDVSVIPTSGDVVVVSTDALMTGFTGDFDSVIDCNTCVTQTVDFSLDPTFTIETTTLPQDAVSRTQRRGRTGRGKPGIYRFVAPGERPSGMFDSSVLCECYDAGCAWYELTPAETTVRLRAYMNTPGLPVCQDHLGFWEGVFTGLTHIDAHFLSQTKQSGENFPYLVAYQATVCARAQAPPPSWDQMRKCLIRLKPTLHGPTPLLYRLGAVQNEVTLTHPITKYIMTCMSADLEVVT

`CN1CCCCC=CC2CC2(C(=O)NS(=O)(=O)C2CC2)NC(=O)C2CC(Oc3nc(N4CCOCC4)nc4ccccc34)CC2C1=O` (stereo not drawn) showed a ring closure, yield after HPLC ([1]; from 4-(2-Morpholin-4-yl-quinazolin-4-yloxy)-cyclopentane-1,2-dicarboxylic acid 1-[(1-cyclopropanesulfonylaminocarbonyl-2-vinyl-cyclopropyl)-amide]2-(hex-5-enyl-methyl-amide), 1.63 mM, 150.0 °C) of 56%.

In the case of `CCOC(=O)C12CC1C=CCCCCN(C)C(=O)C1CC(Oc3nc(-c4ccc(OC)cc4)nc4c(C)c(OC)ccc34)CC1C(=O)N2` (stereo not drawn), the ring closure, isolated yield ([2]; from C=CCCCCN(C)C(=O)C1CC(Oc2nc(-c3ccc(OC)cc3)nc3c(C)c(OC)ccc23)CC1C(=O)NC1(C(=O)OCC)CC1C=C, 14-membered ring, Hoveyda-Grubbs II, 1.71 mM, 16.0 h) is reported as 75%.

Compound `CCOC(=O)C12CC1C=CCCCCN(C)C(=O)C1CC(Oc3nc(-c4cccc(F)c4)nc4c(C)c(OC)ccc34)CC1C(=O)N2` (stereo not drawn) has a ring closure, isolated yield ([2]; from C=CCCCCN(C)C(=O)C1CC(Oc2nc(-c3cccc(F)c3)nc3c(C)c(OC)ccc23)CC1C(=O)NC1(C(=O)OCC)CC1C=C, 14-membered ring, Hoveyda-Grubbs II, 1.49 mM, 16.0 h) of 70%.

With `COc1ccc2c(OC3CC4C(=O)NC5(C(=O)O)CC5C=CCCCCN(C)C(=O)N4C3)nc(-c3ccc(F)cc3)nc2c1C` (stereo not drawn) the ring closure, isolated yield [2, 5] was 20%.

Work on `CN1CCCCC=CC2CC2(C(=O)NS(=O)(=O)C2CC2)NC(=O)C2CC(Oc3nc(-c4ccccc4)nc4ccccc34)CC2C1=O` (stereo not drawn) yielded a ring closure, yield after HPLC ([1]; from 4-(2-Phenyl-quinazolin-4-yloxy)-cyclopentane-1,2-dicarboxylic acid 1-[(1 cyclo-propanesulfonecarbonyl-2-vinylcyclopropyl)-amide]2-(hex-5-enylmethylamide), 1.72 mM, 150.0 °C) of 29%.

Compound `COc1ccc2c(OC3CC4C(=O)NC5(C(=O)O)CC5C=CCCCCN(C)C(=O)N4C3)ncnc2c1C` (stereo not drawn) has a ring closure, isolated yield [2, 5] of 8%.

In the case of `CN1CCN(c2nc(OC3CC4C(=O)NC5(C(=O)NS(=O)(=O)C6CC6)CC5C=CCCCCN(C)C(=O)C4C3)c3ccccc3n2)CC1` (stereo not drawn), the ring closure, yield after HPLC ([1]; from 4-[2-(4-Methyl-piperazin-1-yl)-quinazolin-4-yloxy]-cyclopentane-1,2-dicarboxylic acid 1-[(1-cyclopropanesulfonylaminocarbonyl-2-vinyl-cyclopropyl)amide]2-(hex-5-enyl-methyl-amide), 1.61 mM, 150.0 °C) is reported as 22%.

With `CN1CCCC/C=C\[C@@H]2C[C@@]2(C(=O)NS(=O)(=O)C2CC2)NC(=O)[C@@H]2C[C@@H](Oc3nc(N4CCOCC4)nc4ccccc34)C[C@H]2C1=O` [Compound 36, Cyclopropanesulfonic acid [13-methyl-17-(2-morpholin-4-yl-quinazolin-4-yloxy)-2,14-dioxo-3,13-diaza-tricyclo[13.3.0.0*4,6*]octadec-7-ene-4-carbonyl]-amide] the Ki [3] was 5 to 99.9 nM and the EC50 [4] was 200 to 990 nM.

“Cyclopropanesulfonic acid {17-[2-(4-isopropyl-thiazol-2-yl)-quinazolin-4-yloxy-]-13-methyl-2,14-dioxo-3,13-diaza-tricyclo[13.3.0.0*4,6*]octadec-7-ene-4-carbonyl}-amide” showed a ring closure, yield after HPLC ([1]; 1.67 mM, 15.0 °C) of 64%.

For `CCOC(=O)C12CC1C=CCCCCCN(Cc1ccc(OC)cc1)C(=O)N1CC(OC(=O)c3ccc([N+](=O)[O-])cc3)CC1C(=O)N2` (stereo not drawn), the ring closure, isolated yield ([2]; from C=CCCCCCN(Cc1ccc(OC)cc1)C(=O)N1CC(OC(=O)c2ccc([N+](=O)[O-])cc2)CC1C(=O)NC1(C(=O)OCC)CC1C=C, 15-membered ring, Hoveyda-Grubbs II (5 mol%), then LiOH, 0.74 mM, 2 steps) was 61%.

Work on “17-(7-Methoxy-2-phenyl-quinazolin-4-yloxy-13-methyl-2,14-dioxo-3,13-diazatricyclo[13.3.0.0*4,6*]octadec-7-ene-4-carboxylic acid ethyl ester” yielded a ring closure, isolated yield ([2]; 14-membered ring, Hoveyda-Grubbs I, 1.1 mM) of 40%.

With `COc1ccc2c(O[C@@H]3C[C@H]4C(=O)N[C@]5(C(=O)NS(=O)(=O)C6(C)CC6)C[C@H]5/C=C\CCCCCNC(=O)N4C3)nc(-c3ccccc3)nc2c1C` [Compound 176, 1-Methyl-cyclopropanesulfonic acid [18-(7-methoxy-8-methyl-2-phenyl-quinazolin-4-yloxy)-2,15-dioxo-3,14,16-triaza-tricyclo[14.3.0.0*4,6*]nonadec-7-ene-4-carboyl]-amide] the Ki [3] was 0.1 to 4.9 nM and the EC50 [4] was 0.5 to 199 nM.

“17-[2-(4-Isopropyl-thiazol-2-yl)-7-methoxy-quinazolin-4-yloxy]-13-methyl-2,14-dioxo-3,13-diaza-tricyclo[13.3.0.0*4,6*]octadec-7-ene-4-carboylic acid ethyl ester” gave a ring closure, isolated yield ([2]; 14-membered ring, Hoveyda-Grubbs II, 1.45 mM, 90.0 °C) of 46%.

`CN1CCN(c2nc(O[C@@H]3C[C@H]4C(=O)N[C@]5(C(=O)NS(=O)(=O)C6CC6)C[C@H]5/C=C\CCCCN(C)C(=O)[C@@H]4C3)c3ccccc3n2)CC1` [Compound 34, Cyclopropanesulfonic acid {13-methyl-17-[2-(4-methyl-piperazin-1-yl)quinazolin-4-yloxy]-2,14-dioxo-3,13-diaza-tricyclo[13.3.0.0*4,6*]octadec-7-ene4-carbonyl}-amide] gave a Ki [3] of 5 to 99.9 nM and an EC50 [4] of 200 to 990 nM.

`COc1ccc(-c2nc(O[C@@H]3C[C@H]4C(=O)N[C@]5(C(=O)NS(=O)(=O)C6(C)CC6)C[C@H]5/C=C\CCCCN(C)C(=O)N4C3)c3ccc(OC)c(C)c3n2)cc1` [Compound 132, 1-Methyl-cyclopropanesulfonic acid {17-[7-methoxy-2-(4-methoxy-phenyl)-8-methyl-quinazolin-4-yloxy]-13-methyl-2,14-dioxo-3,13,15-triaza-tricyclo[13.3.0.0*4,6*]octadec-7-ene-4-carbonyl}-amide] showed a Ki [3] of 0.1 to 4.9 nM and an EC50 [4] of 0.5 to 199 nM.

For `COc1cc2nc(-c3ccccc3)nc(O[C@@H]3C[C@H]4C(=O)N[C@]5(C(=O)NS(=O)(=O)C6CC6)C[C@H]5/C=C\CCCCN(C)C(=O)[C@@H]4C3)c2cc1C` [Compound 114], the Ki [3] was 0.1 to 4.9 nM and the EC50 [4] was 0.5 to 199 nM.
